Measured values as given in US20060052357A1, “Organometallic anti-tumour agent” (priority 2001, published 2006).
Marks after values point to notes of the source that are not given here.

Experiments:
[1] = system: C-180 sarcoma; assay: Antitumor activity for C-180 sarcoma, intraperitoneal; format: in vivo; conditions: 5 mg/kg intraperitoneal
Description: 4. Antitumor Activity for C-180 Sarcoma
The results of series of experiments in which the stated active ingredient was administered intra-peritoneally in the stated dosage in physiological saline solution are shown in table 5 below.

[2] = system: S-180 sarcoma tumor; assay: S-180 sarcoma in white crossbred mice (Example 7); format: in vivo; conditions: day 21
Description: After transplantation of the S-180 sarcoma tumor into white crossbred mice, the animals received the substance MOC.melphalan by intraabdominal administration in a dosage of 1 mg/kg in 0.3 ml of 10% DMSO solution on days 3, 5 and 9. The animals were sacrificed on day 21 of the investigation and underwent histological, morphological examination (table 11).
(§1) After transplantation of the S-180 sarcoma tumor into white crossbred mice, the animals received MOC.melphalan and melphalan by intraabdominal administration in a dosage of 5 mg/kg in 0.3 ml of 10% DMSO solution on days 3, 5, 7 and 9. The animals were sacrificed on day 21 of the investigation and underwent histological, morphological examination (table 12).
as §1, with “2, 4, 6, 8” for “3, 5, 7”, “10.” for “9.”, “13).” for “12).”

[3] = system: AKATON tumor; assay: AKATON tumor, MOC.tegafur and tegafur (Example 11, Exp. I, II); format: in vivo, mice
Description: 48 hours after transplantation of the AKATON tumor (adenocarcinoma of the small bowel), the mice of the Balb line received the substance MOC.tegafur in a dosage of 5 mg/kg of body weight by intraabdominal administration in 0.3 ml of a physiological solution. This took place on days 3, 5, 7 and 9. The animals were sacrificed on day 21 of the investigation.
48 hours after transplantation of the AKATON tumor, the mice of the Balb line received the substance MOC.tegafur by intravenous administration in 0.3 ml of a physiological solution. This took place on days 3, 5, 7 and 9. The animals were sacrificed on day 21 of the investigation.

[4] = system: sarcoma-180 tumor; assay: Sarcoma-180 tumor, MOC.tegafur and tegafur (Example 11, Exp. III); format: in vivo, mice; conditions: for Tumor weight: control 3.9
Description: 48 hours after transplantation of the sarcoma-180 tumor, mice of the Balb line received the substance MOC.tegafur by intraabdominal administration in 0.3 ml of a physiological solution. Administration took place on days 3, 5 and 9. The animals were sacrificed on day 21 of the investigation.

[5] = in vivo; cited from earlier work
[6] = system: AKATON tumor; assay: AKATON tumor transplanted after administration of MOC.tegafur; format: in vivo; conditions: 5 mg/kg i.v. 4 days in succession before transplantation
Description: The product was administered intravenously in a physiological solution of 0.3 ml on 4 days in succession (table 20). The AKATON tumor was then transplanted.

[7] = system: sarcoma-180 tumor; assay: Sarcoma-180 tumor tissue changes and mitoses (Example 12); format: in vivo, mice; conditions: 5 mg/kg intraabdominal days 3, 5, 9
Description: The sarcoma-180 tumor was transplanted with a weight of 20 to 22 g into sexually mature crossbred mice. 48 hours after the transplantation of the sarcoma-180 tumor, the mice received the substance MOC.tegafur in a dosage of 5 mg/kg of body weight by intraabdominal administration in 0.9% NaCl solution. Administration took place on days 3, 5 and 9.
On day 21, the mice were sacrificed by decapitation and the tumor tissue was removed for histological examination. The antitumor activity of MOC.tegafur was provisionally determined.
In the investigation, the activity of the tumor tissue was determined in animals which received the product MOC.tegafur and in untreated animals in the control. The number of mitoses and the mitosis index was calculated. The average number of mitoses in the investigation group was 2.55% and in the control animal group was 11.2%. The mitosis index in these animal groups was 0.9 and 4.75. On examination under the microscope, an increase in the number of pathological metaphases and anaphases was observed.

[8] = system: B-16 melanoma tumor; assay: B-16 melanoma tumor, MOC.melphalan and MOC.tegafur (Example 13); format: in vivo, mice; conditions: Dose 5 mg/kg (table), day 16
Description: MOC.tegafur was administered in a physiological solution. The animals in the control group likewise received administration of the solutions (without products). On day 16, the mice were sacrificed by decapitation, tumor tissue was removed for histological examination, and the tumor was investigated for antitumor activity (table 23). The tumors were fixed with 10% formalin, which was followed by embedding in paraffin. The section thickness of 5 μm were stained with hematoxylin-eosinome. The microscopy was carried out with a Leica Galen microscope.

[9] = system: tumor cell cultures (KML); assay: Suppression of cell proliferation in tumor cell cultures (KML); format: cell-based, mice; conditions: incubation 24 hours
Description: The effect of the substances MOC.melphalan and MOC.tegafur of the invention on the proliferative activity, morphology and protein synthesis was investigated on tumor cell cultures (KML). This took place with the mice separated out of the melanoma-16 line. 80 000 cells/ml were distributed in 3 ml of DMEM with the addition of embryonic calf serum, 200 μ/mol of glutamine and antibiotic. After cultivation of the cells at a temperature of 37° C. for 24 hours (logarithmic cell growth phase), the MOC substances were added in the concentration of 10 and 100 μg/ml. After incubation for 24 hours, the number of live cells was determined. In parallel, the fixed specimens of the cells were prepared for morphological analysis.

[10] = system: tumor cell cultures (KML); assay: Protein synthesis: inclusion of 3H-amino acids in tumor cell cultures; format: cell-based, mice; conditions: 50 μg/ml, incubation 24 hours
Description: The effect of the substances on protein synthesis is determined with the aid of the suppression stage through the inclusion of radioactive precursors of amino acids (totaled mixture of ^3H-amino acids). 1 million cells in a “log phase” were selected for this. The complexes were introduced in a dosage of 50 μg/ml and, in parallel, the amino acids with an activity of 10 mCi/ml were introduced into 10 ml bottles. After incubation for 24 hours, the cells were washed out from the cultivation nutrient medium, and a lysis (disruption) was carried out. The radioactivity of the proteins was determined in a […] (table 25).

[11] = Solubility and stability in air
[12] = 3 mg/kg intraabdominal days 3, 5, 9, day 21
[13] = 5 mg/kg intraabdominal days 3, 5, 9, day 21

## N[C@@H](Cc1ccc(N(CCCl)CCCl)cc1)C(=O)O [Melphalan, 4-[bis(2-chloroethyl)amino]-L-phenylalanine, reference compound]
[1]
  % inhibition: 49%
[1]; control 2.8
  Mass of the tumor: 2.4 ± 1.1 g
[2]; 5 mg/kg intraabdominal days 2, 4, 6, 8, 10
  Percentage inhibition: 38%
[2]; 5 mg/kg intraabdominal days 2, 4, 6, 8, 10, control 3.9 ± 0.5
  Average tumor mass: 2.4 ± 1.1 g
[2]; 5 mg/kg intraabdominal days 3, 5, 7, 9
  Percentage inhibition: 49%
[2]; 5 mg/kg intraabdominal days 3, 5, 7, 9, control 2.8
  Average tumor mass: 1.4 g

## O=c1[nH]c(=O)n(C2CCCO2)cc1F (stereo not drawn) [Tegafur, 5-fluoro-1-(tetrahydro-2-furyl)uracil, reference compound]
[3]; 250 mg/kg intravenous four times
  Percent inhibition: 51%
[3]; 250 mg/kg intravenous four times, control 4.3
  Tumor weight: 2.1 g
[3]; 250 mg/kg, four times, intraabdominal experiment
  Percent inhibition: 54.5%
[3]; 250 mg/kg, four times, intraabdominal experiment, control 4.4
  Tumor weight: 1.95 g
[4]; 250 mg/kg three times
  Percent inhibition: 20.5%
  Tumor weight: 3.1 g
[5]
  LD50: 650 mg/kg

## Cu(C5H7O2)2.C8H9O3N2F [MOC.tegafur]
[3]; 5 mg/kg intraabdominal days 3, 5, 7, 9, day 21
  Percent inhibition: 86%
[3]; 5 mg/kg intraabdominal days 3, 5, 7, 9, day 21, control 4.4
  Tumor weight: 0.61 g
[3]; 5 mg/kg intravenous days 3, 5, 7, 9, day 21
  Percent inhibition: 80%
[3]; 5 mg/kg intravenous days 3, 5, 7, 9, day 21, control 4.3
  Tumor weight: 0.86 g
[4]; [12]
  Percent inhibition: 89%
  Tumor weight: 0.43 g
[4]; [13]
  Percent inhibition: 95%
  Tumor weight: 0.195 g
[6]
  Percent inhibition of tumor volume: 61.3* %
  Percent inhibition of tumor weight: 50* %
[6]; control 4.46
  Tumor weight: 2.20 g
[6]; control 7.90
  Size of the tumor: 3.06 cm^3
[7]; control 4.75
  mitosis index: 0.9
[7]; control 11.2%
  average number of mitoses: 2.55%
[7]; day 21, provisionally determined
  percent inhibition of tumor proliferation: 96.4%
[8]; control 4.22
  MI (mitosis index): 0.86
[8]; intraabdominal days 3, 5, 9
  Percent inhibition: 65.66%
[8]; intraabdominal days 3, 5, 9, control 3.22
  Tumor weight: 1.13 g
[9]; 10 μg/ml
  Suppression of growth cells: 32%
[9]; 100 μg/ml
  Suppression of growth cells: 100%
[10]
  Suppression of amino acid inclusion: 77%
[11]; in ether and chloroform
  solubility: insoluble
[11]; in water, physiological solution, methanol, ethanol, DMSO and Twin-80
  solubility: readily soluble
